These results are taken from US8809001B2, “High throughput assays for inhibitors and activators of PAQR receptors” (University of Florida Research Foundation, Inc., priority 2007, dated 2014).

The test system of one assay is Class II PAQRs. Put plainly: FET3-lacZ response of the human PAQR panel to 10 μM progesterone: Class II. The class given is cell-based. From the text: (§1) Plasmids and primers. Human PAQRs were cloned into various vectors by PCR from commercially/publically available cDNAs. PAQRs were cloned into the pYES260 (Melcher, 2000), pRS316 (Liu et al., 1992) or pGREG536 (Jansen et al., 2005) expression vectors using gap repair. The pJK90 plasmid containing a Dual Topology Reporter (DTR)-tagged OST4 gene driven by the constitutive TPI1 promoter was kindly provided by Dr. Gunnar von Heijne (Stockholm University) (Kim et al., 2003). The OST4 open reading frame in pJK90 was replaced with the PAQR6 and mPRα open reading frames by gap repair. Primers for all cloning reactions are listed herein. Proteins expressed in pYES260 have an N-terminal 6×-histidine tag followed by a TEV protease cleavage site. Proteins expressed in pGREG536 have an N-terminal 7×-HA tag. Proteins expressed in the pRS316 vector are untagged. The pYES260, pRS316 and pGREG536 vectors allow for galactose-inducible expression via the GAL1 promoter. […] The FET3-lacZ plasmid was previously described (Kupchak et al., 2007). […]
(§2) Assays and growth conditions. […] Cells were allowed to grow to mid-log phase at which time the activity of the FET3 gene was monitored using a FET3-lacZ promoter-reporter construct. lacZ activities are presented as a percentage of activity seen in untreated cells expressing the appropriate empty expression vector control. […]

For another assay, the target named is mPRs. The following applies: determined by Thomas et al. (2008); read-out: Kd for progesterone binding to mPRs; cited from earlier work.
A further assay deals with T1, PAQR6 (Homo sapiens, UniProt Q6TCH4).
T1 construct: expressed in transfected cells; host or cells: Saccharomyces cerevisiae BY4742, GAL1-driven pYES260 plasmid
T1 sequence (Q6TCH4 1-344): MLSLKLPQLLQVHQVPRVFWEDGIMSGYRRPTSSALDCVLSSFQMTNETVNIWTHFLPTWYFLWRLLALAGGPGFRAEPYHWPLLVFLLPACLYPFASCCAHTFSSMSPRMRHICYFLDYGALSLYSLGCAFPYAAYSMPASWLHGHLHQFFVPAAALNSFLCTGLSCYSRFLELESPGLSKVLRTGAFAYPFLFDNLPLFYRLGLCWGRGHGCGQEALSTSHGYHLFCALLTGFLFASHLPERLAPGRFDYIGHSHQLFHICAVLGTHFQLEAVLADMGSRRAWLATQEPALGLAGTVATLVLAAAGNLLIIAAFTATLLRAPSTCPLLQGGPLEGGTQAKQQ
As to the kind of experiment: FET3-lacZ reporter repression in yeast expressing PAQR6. The class given is cell-based. The following applies: PAQR6, Table 3.
Text: as §1, §2

Consider `CC(=O)[C@H]1CC[C@H]2[C@@H]3CCC4=CC(=O)CC[C@]4(C)[C@H]3CC[C@]12C` [Progesterone, progesterone], for which the “agonist effect on all five Class II PAQRs” value in the assay on Class II PAQRs is “effective agonist”. In addition, the Kd at mPRs was about 5 nM. Also, the EC50 at PAQR6 came out at 2.6 nM.
